Where two headings read alike, the source gives them in different places.
Columns and labels:
[1] = test system: rabbit platelet-rich plasma; experiment: Platelet aggregation inhibition (rabbit platelet-rich plasma, aggregometer); type: cell-based; details: Oryctolagus cuniculus, compound final concentration 10 μM, read-out: Inhibitory ratio
Procedure: (2) Platelet aggregation inhibition:
A rabbit platelet-rich plasma (5×10^5 /mm^3), to which was added 1/10 volume of a 3.8% sodium citrate solution, 216 μl, is incubated in an aggregometer at 37° C., 1000 rpm, for 3 mins. A test sample solution 12 μl (final concentration 10 μM) is added thereto and the mixture is further incubated for 3 mins., and collagen (aggregation agent) 2.5 μg/ml, ADP 2.5 μM, platelet activating factor (PAF) 0.05 μg/ml or 0.25 mM arachidonic acid (A.A.) 12 μl is added thereto as an aggregating agent, and the platelet aggregation activity is measured.

[2] = test system: cyclic AMP/phosphodiesterase; experiment: Inhibitory action of cyclic AMP/phosphodiesterase (crude enzyme fraction from sonicated rabbit platelets); type: biochemical; details: 40 min
Procedure: The pharmacological activity of the present compounds [1] is illustrated below. (1) Inhibitory action of cyclic AMP/phosphodiesterase:
A mixture of 2 mM MgCl2 /40 mM Tris-buffer (pH 7.5) 700 μl, enzyme solution (a crude enzyme fraction obtained from sonicated rabbit platelets) 100 μl, and a test sample solution (compound [1] dissolved in 50% aqueous methanol) 100 μl is incubated at 30° C. for 5 mins. 3', 5'-cyclic AMP 100 μl (50 μg) is added thereto and the mixture is further incubated for 40 mins. The reaction is stopped by heating 100° C. for 5 mins. The amount of 5'-AMP in the supernatant obtained by centrifugation at 3000 rpm for 5 mins. is measured using HPLC.
As shown in that table, the compound of the present invention has cyclic AMP/phosphodiesterase inhibitory activity at 1-10 μg/ml.

Compound: CN(C(=O)CCCOc1ccc2c(c1)NCC(=O)N2)C1CCCCC1 [Compound 929, 6-[3-(N-cyclohexyl-N-methyl-aminocarbonyl)propoxy]-2-oxo-1,2,3,4-tetrahydroquinoxaline]
- inhibition at 10 µM ([1]; aggregating agent ADP 2.5 μM): 49.4%
- inhibition at 10 µM ([1]; aggregating agent PAF 0.05 μg/ml): 30.4%
- inhibition at 10 µM ([1]; aggregating agent arachidonic acid (A.A.) 0.25 mM): 41.8%
- inhibition at 10 µM ([1]; aggregating agent collagen 2.5 μg/ml): 50.8%
- Inhibitory ratio ([2]; 1 μg/ml): 11.2%
- Inhibitory ratio ([2]; 10 μg/ml): 53.9%
- Inhibitory ratio ([2]; 100 μg/ml): 88.5%

Compound: CCOC(=O)CCCCOc1ccc2c(c1)NCC(=O)N2 [Compound 927]
- Inhibitory ratio ([2]; 1 μg/ml): 10.5%
- Inhibitory ratio ([2]; 10 μg/ml): 47.7%
- Inhibitory ratio ([2]; 100 μg/ml): 76.1%

Compound: CCN(CC)C(=O)CCCOc1ccc2[nH]c(=O)c(C)nc2c1 [Compound 967]
- Inhibitory ratio ([2]; 1 μg/ml): 38.0%
- Inhibitory ratio ([2]; 10 μg/ml): 81.0%
- Inhibitory ratio ([2]; 100 μg/ml): 92.8%

Compound: CCc1nc2cc(OCCCC(=O)N3CCN(c4ccccc4OC)CC3)ccc2[nH]c1=O [Compound 973]
- Inhibitory ratio ([2]; 1 μg/ml): 37.6%
- Inhibitory ratio ([2]; 10 μg/ml): 42.2%

Compound: CCCCCCc1nc2cc(OCCCC(=O)N(CCO)C3CCCCC3)ccc2[nH]c1=O [Compound 978]
- Inhibitory ratio ([2]; 1 μg/ml): 26.2%
- Inhibitory ratio ([2]; 10 μg/ml): 40.1%

Compound: COc1ccccc1N1CCN(C(=O)CCCOc2ccc3[nH]c(=O)c(C)nc3c2)CC1 [Compound 968]
- Inhibitory ratio ([2]; 1 μg/ml): 17.1%
- Inhibitory ratio ([2]; 10 μg/ml): 60.3%

Compound: CCCc1nc2cc(OCCCC(=O)N(C)C3CCCCC3)ccc2[nH]c1=O [Compound 974]
- Inhibitory ratio ([2]; 1 μg/ml): 73.2%
- Inhibitory ratio ([2]; 10 μg/ml): 91.7%

Compound: CCCCCCc1nc2cc(OCCCC(=O)OCC)ccc2[nH]c1=O [Compound 949]
- Inhibitory ratio ([2]; 1 μg/ml): 40.9%
- Inhibitory ratio ([2]; 10 μg/ml): 53.7%

Compound: Cc1nc2cc(OCCCC(=O)N(C)C3CCCCC3)ccc2[nH]c1=O [Compound 965]
- Inhibitory ratio ([2]; 1 μg/ml): 68.9%
- Inhibitory ratio ([2]; 10 μg/ml): 87.3%

Compound: Cc1nc2cc(OCCCC(=O)N(Cc3ccccc3)C3CCCCC3)ccc2[nH]c1=O [Compound 969]
- Inhibitory ratio ([2]; 1 μg/ml): 72.7%
- Inhibitory ratio ([2]; 10 μg/ml): 82.5%

Compound: CCCCCCc1nc2cc(OCCCC(=O)O)ccc2[nH]c1=O [Compound 959]
- Inhibitory ratio ([2]; 1 μg/ml): 43.4%
- Inhibitory ratio ([2]; 10 μg/ml): 80.5%
- Inhibitory ratio ([2]; 100 μg/ml): 91.0%

Compound: CCOC(=O)CCCCOc1ccc2[nH]c(=O)cnc2c1 [Compound 919]
- Inhibitory ratio ([2]; 1 μg/ml): 23.9%
- Inhibitory ratio ([2]; 10 μg/ml): 65.2%
- Inhibitory ratio ([2]; 100 μg/ml): 92.4%

Compound: O=C(CCCOc1ccc2[nH]c(=O)cnc2c1)N(Cc1ccccc1)C1CCCCC1 [Compound 916]
- Inhibitory ratio ([2]; 1 μg/ml): 47.3%
- Inhibitory ratio ([2]; 10 μg/ml): 78.0%
- Inhibitory ratio ([2]; 100 μg/ml): 85.7%

Compound: Cc1nc2cc(OCCCC(=O)N3CCC(c4ccccc4)CC3)ccc2[nH]c1=O [Compound 970]
- Inhibitory ratio ([2]; 1 μg/ml): 24.1%
- Inhibitory ratio ([2]; 10 μg/ml): 51.5%

Compound: CCCCc1nc2cc(OCCCC(=O)N(C)C3CCCCC3)ccc2[nH]c1=O [Compound 976]
- Inhibitory ratio ([2]; 1 μg/ml): 51.1%
- Inhibitory ratio ([2]; 10 μg/ml): 84.5%

Compound: COc1ccccc1N1CCN(C(=O)CCCCOc2ccc3[nH]c(=O)cnc3c2)CC1 [Compound 924]
- Inhibitory ratio ([2]; 1 μg/ml): 24.6%
- Inhibitory ratio ([2]; 10 μg/ml): 63.5%
- Inhibitory ratio ([2]; 100 μg/ml): 70.2%

Compound: CN(C(=O)CCCOc1ccc2[nH]c(=O)c(-c3ccccc3)nc2c1)C1CCCCC1 [Compound 986]
- Inhibitory ratio ([2]; 1 μg/ml): 66.2%
- Inhibitory ratio ([2]; 10 μg/ml): 80.5%

Compound: COc1ccccc1N1CCN(C(=O)CCCOc2ccc3[nH]c(=O)cnc3c2)CC1 [Compound 918]
- Inhibitory ratio ([2]; 1 μg/ml): 19.8%
- Inhibitory ratio ([2]; 10 μg/ml): 61.0%
- Inhibitory ratio ([2]; 100 μg/ml): 87.9%

Compound: O=C(CCCOc1ccc2[nH]c(=O)c(-c3ccccc3)nc2c1)N(CCO)C1CCCCC1 [Compound 987]
- Inhibitory ratio ([2]; 1 μg/ml): 57.4%
- Inhibitory ratio ([2]; 10 μg/ml): 83.3%
- Inhibitory ratio ([2]; 100 μg/ml): 90.2%

Compound: CCCc1nc2cc(OCCCC(=O)O)ccc2[nH]c1=O [Compound 957]
- Inhibitory ratio ([2]; 1 μg/ml): 71.4%
- Inhibitory ratio ([2]; 10 μg/ml): 90.7%
- Inhibitory ratio ([2]; 100 μg/ml): 94.0%

Compound: CCCCc1nc2cc(OCCCC(=O)OCC)ccc2[nH]c1=O [Compound 948]
- Inhibitory ratio ([2]; 1 μg/ml): 62.9%
- Inhibitory ratio ([2]; 10 μg/ml): 87.9%
- Inhibitory ratio ([2]; 100 μg/ml): 92.7%
